Assay results as given in patent US20240269194A1, “COMPOSITIONS AND METHODS FOR ISLET CELL TRANSPLANTS” (City of Hope, priority 2021, published 2024).
Entries after “also recorded” stand apart in the source; their conditions may differ.

What was measured:
non-diabetic Wistar rats = assay: Beta and alpha cell content of pancreas by laser scanning cytometry after 30-day treatment; assay type: in vivo, rat
Procedure: The islet expansion effects of GAST-17 were evaluated in non-diabetic Wistar rats (10 males and 10 females in each group). At the end of 30-day treatment, animals were terminated, pancreata excised and immuno-stained for beta and alpha cell content using laser scanning cytometry (LSC) (FIGS. 2A and 2B).
Gastrin analogue, GAST-17, stimulates beta cell expansion. T2D individuals display a loss of beta cell numbers and function. Increasing beta cell mass is considered a possible therapy for T2D (37). The islet expansion effects of GAST-17 were evaluated in non-diabetic Wistar rats (10 males and 10 females in each group). At the end of 30-day treatment, pancreata were excised and stained for beta and alpha cell content counting using laser scanning cytometry (FIGS. 24A and 24B).

human islets [1] = assay: Long-term human islet culture with and without GAST-17, inflammatory gene expression; assay type: cell-based; settings: non-diabetic donors, long-term culture (1516 days), 21% oxygen
Procedure: Long-term islet culture is associated with expression of inflammatory cytokines and islet stress/damage. Human islets from non-diabetic donors were cultured with and without GAST-17 long-term (1516 days) at normal oxygen concentrations (21%).

[2] = system: transplanted human islets; assay: Human islets transplanted to livers of NOD mice: 18F-TCE4 microPET, insulin staining, blood glucose; assay type: in vivo, mouse; settings: 150 μg/kg/dose three times daily, 30 days
Procedure: Isolated human islets were transplanted (Tx) to the livers of NOD mice followed by GAST-17 treatment for 30 days (150 μg/kg/dose, injected three times daily) (Tx+Treated, n=7) and compared to mice receiving islet transplant alone (Tx only, n=5) and untreated controls (Normal, n=5). After completion of treatment, whole mice and organs of interest were imaged (in vivo and ex vivo) with ^18F-TC-Exendin-4 (TCE4) using microPET and a high specific activity labeling technique developed at COH for targeting islets (49). […] Beta cell mass was calculated as percent beta cell area of the total cell surface area found on immunolabeled tissue sections. Data from 4 livers from mice treated with islet transplant alone (“−Gastrin”) and five livers from mice treated with islet transplant and gastrin treatment (“+Gastrin”) (˜32 slides per liver) were assessed.
Gastrin analogue, GATS-17, promotes expansion/neogenesis of transplanted human islets. Isolated human islets were transplanted (Tx) into livers of NOD/SCID mice followed by GAST-17 treatment for 30 days (150 μg/kg/dose, injected three times daily) (Tx+Treated, n=7) and compared to mice receiving islet transplant alone (Tx only, n=5) and untreated controls (Normal, n=5). After completion of treatment, whole mice and organs of interest were imaged (in vivo and ex vivo) with ^18F-TC-Exendin-4 (TCE4) using microPET (a high specific activity labeling technique developed at COH for targeting islets).

human islets [3] = assay: Human islets challenged with inflammatory cytokines, glucose-mediated insulin secretion; assay type: cell-based; settings: inflammatory cytokine challenge
Procedure: Gastrin is expressed in insulin^+ and somatostatin^+ cells in islets from people with T2D. As noted, gastrin increased insulin/somatostatin in delta cells, and this correlated positively with islet donor A1c levels (64). Extending these published and new findings, human islets were challenged with inflammatory cytokines (to mimic the harsh environment of transplantation) in the presence and absence of GAST-17 and glucose-mediated insulin secretion was determined.

T1D patients = assay type: in vivo, human
Procedure: Gastrin is a natural hormone that is secreted by the stomach and is involved in fetal pancreas development. […] Building on these observations, it was tested whether gastrin treatment will improve islet engraftment, induced beta cell expansion/function, and enhanced islet transplant outcomes in T1D individuals. A gastrin analogue (GAST-17) was produced and obtained FDA-IND approval to evaluate its safety and efficacy in a Phase I/II, prospective, single-arm trial to improve outcomes in T1D recipients undergoing a single islet transplant and two 30-day courses for GAST-17. The trial has been initiated with the first two treated individuals achieving insulin independence with roughly half of the islet dose normally required.
The success of clinical islet transplantation depends on transplantation of adequate islet mass and minimizing graft loss secondary to ischemia and inflammation. After infusion into the portal vein, islets are exposed to damaging inflammatory factors (the so-called instant blood-mediated inflammatory reaction, IBMIR). This involves activation of the complement and coagulation cascades, ultimately resulting in clot formation and infiltration of leukocytes into the islets. The IBMIR may be triggered by islet surface molecules, such as tissue factor and collagen residues that are normally not in direct contact with the blood. Also, ischemic stress during islet isolation results in production of inflammatory mediators by islets. Strategies to mitigate the IBMIR include the treatment of recipients with anticoagulants or pre-conditioning islets with anti-inflammatory agents. As inflammatory reactions are thought to negatively impact islet engraftment in the early post-transplant period, etanercept, a TNFα mitigator, and anakinra, an IL-1 receptor antagonist, are used to limit acute transplant-related inflammation. […]
Treatment course 1. […] Subjects are monitored for adverse effects and assessed for preliminary efficacy at 1, 2.5, and 6 months after starting the first course of GAST-17. […]

human islets [4] = assay: qPCR gene expression in isolated human islets treated for 48 hours; assay type: cell-based
Procedure: Isolated human islets from 11 donors with varied glycemic control (HbA1c 5.2-10.4) were treated with GAST-17 for 48 hours and gene expression was analyzed by qPCR. […] Gene expression levels were not increased in islets from donors with an HbA1c <6.0 (FIG. 9). The increase in insulin mRNA correlated with the HbA1c levels, with higher insulin transcripts seen in islets from donors with more elevated HbA1c (FIG. 10).

gastrin receptor CCKBR = target: T1, gastrin receptor CCKBR (Homo sapiens, UniProt P32239); assay: Gastrin receptor blockade with YM022, qPCR in human islets; assay type: cell-based; settings: YM022 together with 100 nM gastrin, donors with high HbA1c
T1 construct: Human islets express the gastrin receptor CCKBR; from tissue; host or cells: isolated human pancreatic islets from donors
T1 sequence (P32239 whole entry): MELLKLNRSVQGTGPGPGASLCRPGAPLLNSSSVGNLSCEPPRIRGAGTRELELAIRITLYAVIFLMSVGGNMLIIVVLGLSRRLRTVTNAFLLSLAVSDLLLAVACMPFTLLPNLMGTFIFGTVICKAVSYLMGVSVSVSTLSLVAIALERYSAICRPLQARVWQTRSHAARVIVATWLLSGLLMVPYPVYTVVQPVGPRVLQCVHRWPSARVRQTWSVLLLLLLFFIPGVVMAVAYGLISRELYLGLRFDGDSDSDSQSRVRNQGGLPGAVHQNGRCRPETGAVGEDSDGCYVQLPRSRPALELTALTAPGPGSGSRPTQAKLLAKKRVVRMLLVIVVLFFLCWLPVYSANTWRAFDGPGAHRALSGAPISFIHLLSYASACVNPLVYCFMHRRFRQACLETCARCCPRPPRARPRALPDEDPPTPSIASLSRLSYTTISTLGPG
Procedure: To establish that gastrin effect is mediated through activation of the gastrin receptor CCKBR, islets were treated with either 100 nM gastrin or 100 nM gastrin together with the CCKBR antagonist YM022.

[5] = donors HbA1c >6.0 (n=5), P<0.0001

Row | Compound | percentage of alpha cells (non-diabetic Wistar rats; 30-day treatment vs controls) | average percentage of beta cells of total cells per slide (non-diabetic Wistar rats; 30-day treatment, all treatment groups vs controls) | expression of IL-10 (human islets [1]) | islet expression of inflammatory genes (human islets [1]) | native beta cell expansion, ex vivo imaging of the pancreas ([2]; p=0.000063) | 18F-TCE4 uptake by islet grafts in liver, in vivo (whole body images) ([2]; vs control group, p=0.000015) | 18F-TCE4 uptake by islet grafts, ex vivo (excised liver) ([2]; vs control group, p=0.000036) | glucose-mediated insulin secretion (human islets [3]) | human islet damage from inflammatory cytokines (human islets [3]) | insulin+/somatostatin+ cell numbers (human islets [3]) | insulin independence (T1D patients; first two T1D patients, single islet transplant <6,100 IEQ/kg) | engraftment and blood glucose normalization (T1D patients; two T1D individuals, 15 μg/kg twice daily, month 1 and 7, <6,100 IEQ/kg) | time to insulin freedom (T1D patients; two patients, single IT (<6,100 IEQ/kg BW)) | gene expression levels (insulin, somatostatin, glucagon) (human islets [4]; donors HbA1c <6.0) | insulin transcripts (human islets [4]; [5]) | somatostatin transcripts (human islets [4]; [5]) | glucagon transcripts (human islets [4]; donors HbA1c >6.0 (n=5), P<0.02) | mRNA levels of transcription factors MAFA, MNX1, NKX2.2, NKX6.1, PDX1 and HHEX (human islets [4]; only in HbA1c >6.0 group) | insulin, somatostatin and glucagon mRNA levels (gastrin receptor CCKBR)
1 | [Leu^15] Gastrin-17 [GAST-17] | did not change | significantly increased | increased expression of IL-10 | reduced islet expression of inflammatory genes | significant expansion | significantly increased; also recorded: significantly higher | significantly increased; also recorded: significantly higher | enhanced insulin secretion | reduced human islet damage from inflammatory cytokines | increased insulin+/somatostatin+ cell numbers | achieving insulin independence with half of the islet mass normally required | rapid engraftment and total normalization of blood glucose | achieved insulin freedom within two weeks | not increased | significant increase | significant increase | significant increase | significant increases | 
2 | Cc1cccc(NC(=O)N[C@@H]2N=C(c3ccccc3)c3ccccc3N(CC(=O)c3ccccc3C)C2=O)c1 [YM022] |  |  |  |  |  |  |  |  |  |  |  |  |  |  |  |  |  |  | remained un-changed
